EC50 and bioavailability data for one compound are collected here from patent US11377425B1, “Small molecule modulators of IL-17” (LEO Pharma A/S, priority 2018, dated 2022).

Where only a bound is given, the exact number is not on record here.

For one series, the target named is T1, human IL-17AA (Homo sapiens, UniProt Q16552).
T1 construct: host or cells: HEK (human embryonic kidney) cells
T1 sequence (Q16552 24-155): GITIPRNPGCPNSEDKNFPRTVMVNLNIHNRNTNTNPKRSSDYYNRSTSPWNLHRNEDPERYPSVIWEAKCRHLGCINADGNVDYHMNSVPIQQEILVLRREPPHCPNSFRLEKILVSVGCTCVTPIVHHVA
Briefly: IL-8 release assay in human epithelial keratinocytes adult (HEKa). The class given is cell-based. As to conditions: HEKa cells, 3 ng/mL HEK-human IL-17AA + 10 ng/mL human TNFalpha; read-out: Rel EC50 IL-8 release assay. In outline:
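Adult human epidermal keratinocytes stimulated 68-72 h at 37 °C with 3 ng/mL HEK-derived human IL-17AA plus 10 ng/mL TNF-alpha (final) in the presence of compound; TNF-alpha alone defines 100% inhibition. Secreted IL-8 measured by HTRF as percent of controls; relative IC50/Emax from four-parameter fit (r^2>0.9), cytotoxicity by PrestoBlue.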

Series [1] can be described thus: In vivo dosing of compounds in dog (pharmacokinetics, PO and i.v.). Also noted: species or system dog (male Beagles). As to conditions: male, Beagle, whole blood, oral dose of Example 32 1 mg/kg. How it is done:
Example 139. In Vivo Dosing of Compounds in Dog
Dog pharmacokinetics (PK) of Examples 32 and 135 were studied in male Beagles. On the day of dosing, the animals were fasted overnight. They had free access to drinking water, except in immediate connection with dosing, and were allowed to eat from 4 hrs after dosing and onwards. The dogs were weighed on the morning prior to dosing and the individual dose volumes were adjusted on a per kg body weight basis.
Oral dosing. The dogs were dosed PO by oral gavage. The test compounds were dosed as suspensions in 1% methyl cellulose solution (2.5 mL/kg). The stomach tube was then flushed with at least 15 mL water post-dose to ensure that all test formulation entered the stomach.
Intravenous dosing. The dogs were dosed i.v. via an in-dwelling catheter in venae cephalica. The dose volume was 1 mL/kg of a solution of Example 32 (0.3 mg/mL) in HPB (hydroxypropyl beta cyclodextrin)/PEG-4 (polyethylene glycol-4)/water (20:20:60). […]
Study samples. […] The compounds were quantified in blood by means of LC-MS/MS.
Standard PK parameters were calculated using non-compartmental analysis and Phoenix WinNonLin 6.4 (Certara, Princeton, N.J.).
(§1) The bioavailabilty (F) was calculated using the equation below, where AUC is the area under the curve for the oral and i.v. dosing routes and D is the dose given i.v. or orally. […]

The nature of series [2]: In vivo dosing of compounds in mouse (pharmacokinetics, PO and i.v.). The conditions noted are these: female, Balb/C, whole blood, oral dose of Example 32 50 mg/kg. Here is the method: Example 140. In Vivo Dosing of Compounds in Mouse
Mouse pharmacokinetics of Examples 32 and 135 were studied in female Balb/C mice. Animals were not fasted prior to the study and had access to water and certified rodent diet ad libitum during the study. The mice were weighed on the day of the study and the individual dose volumes were adjusted on a per kg body weight basis.
Oral dosing. The mice were dosed by oral gavage. Example 135 was dosed as a suspension in 1% methyl cellulose solution (10 mL/kg). Example 32 was dosed as a suspension in a formulation containing Betadex sulfobutyl ether sodium/PVP (polyvinyl pyrrolidone)/0.1% Citrate buffer pH 3 (20:5:75) (10 mL/kg).
Intravenous dosing. The mice were dosed i.v. via the tail vein. The dose volume was 2 mL/kg of a solution of Example 32 (0.2 mg/mL) in DMSO/ethanol/water/propylene glycol (PG) (2:8:50:40).
Study samples. Blood was collected (exactly 20 μL per time point) from the saphenous vein of each animal into K2EDTA-coated capillaries. […] The compounds were quantified in blood by means of LC-MS/MS.
Standard PK parameters were calculated using non-compartmental analysis in Phoenix WinNonLin 6.4 (Certara, Princeton, N.J.)
as §1

Turning to `Cc1n[nH]c(C)c1-c1ccc(NC(=O)[C@@H](NC(=O)c2ccnn2C(C)C)C(C2CC2)C2CC2)cc1` (single isomer, unassigned) [Example 32], the EC50 on human IL-17AA is less than 100 nM. Further, the bioavailability is 23% in series [1] and 26% in series [2].
